# ChEMBL document CHEMBL3885861, “Open TG-GATES”
# Species on record: Rattus norvegicus
# Test: Open TG-GATES - Regimen: Single
# Type: toxicity, organism-based, Sprague-Dawley
# Parameters: regimen Single, gender Male, age 6 weeks
# Details: in vivo, po, route gavage; for Eos / Fbg / Hb / Ht / Lym / MCH / MCHC / MCV / Mono / Neu / PT / Plat / RBC / Ret / WBC / APTT / Bas: tissue Blood; for KIDNEY_L / KIDNEY_R / KIDNEY_TOTAL: tissue Kidney; for LIVER: tissue Liver; for A/G / ALP / ALT / AST / BUN / CRE / Ca / Cl / DBIL / GLC / IP / K / LDH / Na / PL / RALB / TBIL / TC / TG / TP / gamma-GTP: tissue Plasma
# [1] = 30 mg/kg, 3 h, dose level Middle
# [2] = 30 mg/kg, 6 h, dose level Middle
# [3] = 30 mg/kg, 9 h, dose level Middle
structure (smiles),measurement,setting,value
O=C1CN(/N=C/c2ccc([N+](=O)[O-])o2)C(=O)N1 [NITROFURANTOIN],Eos,"10 mg/kg, 24 h, dose level Low",1%
same,Fbg,"10 mg/kg, 24 h, dose level Low",212.8 mg/dL
same,Hb,"10 mg/kg, 24 h, dose level Low",13.1 g/dL
same,Ht,"10 mg/kg, 24 h, dose level Low",37.6%
same,Lym,"10 mg/kg, 24 h, dose level Low",80.2%
same,MCH,"10 mg/kg, 24 h, dose level Low",21.9 pg
same,MCHC,"10 mg/kg, 24 h, dose level Low",34.9%
same,MCV,"10 mg/kg, 24 h, dose level Low",62.7 fL
same,Mono,"10 mg/kg, 24 h, dose level Low",2.2%
same,Neu,"10 mg/kg, 24 h, dose level Low",15.4%
same,PT,"10 mg/kg, 24 h, dose level Low",12.6 s
same,Plat,"10 mg/kg, 24 h, dose level Low",126.9 x10_4/uL
same,RBC,"10 mg/kg, 24 h, dose level Low",599.6 x10_4/ul
same,Ret,"10 mg/kg, 24 h, dose level Low",7%
same,WBC,"10 mg/kg, 24 h, dose level Low",79.2 x10_2/uL
same,KIDNEY_L,"10 mg/kg, 24 h, dose level Low",1.1 g
same,KIDNEY_R,"10 mg/kg, 24 h, dose level Low",1.1 g
same,KIDNEY_TOTAL,"10 mg/kg, 24 h, dose level Low",2.1 g
same,LIVER,"10 mg/kg, 24 h, dose level Low",11.3 g
same,A/G,"10 mg/kg, 24 h, dose level Low",1.6
same,ALP,"10 mg/kg, 24 h, dose level Low",999.6 IU/L
same,ALT,"10 mg/kg, 24 h, dose level Low",38.4 IU/L
same,AST,"10 mg/kg, 24 h, dose level Low",63.4 IU/L
same,BUN,"10 mg/kg, 24 h, dose level Low",16.8 mg/dL
same,CRE,"10 mg/kg, 24 h, dose level Low",0.4 mg/dL
same,Ca,"10 mg/kg, 24 h, dose level Low",10.9 mg/dL
same,Cl,"10 mg/kg, 24 h, dose level Low",101.8 meq/L
same,DBIL,"10 mg/kg, 24 h, dose level Low",0.1 mg/dL
same,GLC,"10 mg/kg, 24 h, dose level Low",211.6 mg/dL
same,IP,"10 mg/kg, 24 h, dose level Low",7.1 mg/dL
same,K,"10 mg/kg, 24 h, dose level Low",4.3 meq/L
same,LDH,"10 mg/kg, 24 h, dose level Low",168.2 IU/L
same,Na,"10 mg/kg, 24 h, dose level Low",139.4 meq/L
same,PL,"10 mg/kg, 24 h, dose level Low",151.6 mg/dL
same,RALB,"10 mg/kg, 24 h, dose level Low",3.3 g/dL
same,TBIL,"10 mg/kg, 24 h, dose level Low",0.2 mg/dL
same,TC,"10 mg/kg, 24 h, dose level Low",78.8 mg/dL
same,TG,"10 mg/kg, 24 h, dose level Low",105.8 mg/dL
same,TP,"10 mg/kg, 24 h, dose level Low",5.4 g/dL
same,gamma-GTP,"10 mg/kg, 24 h, dose level Low",0.8 IU/L
same,TERMINAL_BW,[1],218.7 g
same,APTT,[1],18.8 s
same,Bas,[1],0%
same,Eos,[1],1.2%
same,Fbg,[1],219.2 mg/dL
same,Hb,[1],13.8 g/dL
same,Ht,[1],39.3%
same,Lym,[1],79%
same,MCH,[1],21.6 pg
same,MCHC,[1],35.2%
same,MCV,[1],61.4 fL
same,Mono,[1],2%
same,Neu,[1],16.8%
same,PT,[1],12.6 s
same,Plat,[1],113.7 x10_4/uL
same,RBC,[1],642 x10_4/ul
same,Ret,[1],7.5%
same,WBC,[1],82.7 x10_2/uL
same,KIDNEY_L,[1],1 g
same,KIDNEY_R,[1],1 g
same,KIDNEY_TOTAL,[1],2 g
same,LIVER,[1],10.8 g
same,A/G,[1],1.5
same,ALP,[1],1203 IU/L
same,ALT,[1],37.6 IU/L
same,AST,[1],66.6 IU/L
same,BUN,[1],12.8 mg/dL
same,CRE,[1],0.4 mg/dL
same,Ca,[1],10.6 mg/dL
same,Cl,[1],101.4 meq/L
same,DBIL,[1],0.074 mg/dL
same,GLC,[1],194.6 mg/dL
same,IP,[1],9 mg/dL
same,K,[1],4 meq/L
same,LDH,[1],180 IU/L
same,Na,[1],140.6 meq/L
same,PL,[1],136 mg/dL
same,RALB,[1],3.3 g/dL
same,TBIL,[1],0.1 mg/dL
same,TC,[1],74.6 mg/dL
same,TG,[1],62.2 mg/dL
same,TP,[1],5.5 g/dL
same,gamma-GTP,[1],0.8 IU/L
same,TERMINAL_BW,[2],219.6 g
same,APTT,[2],19 s
same,Bas,[2],0%
same,Eos,[2],1%
same,Fbg,[2],219 mg/dL
same,Hb,[2],13.3 g/dL
same,Ht,[2],37.6%
same,Lym,[2],75%
same,MCH,[2],21.5 pg
same,MCHC,[2],35.3%
same,MCV,[2],61 fL
same,Mono,[2],2.6%
same,Neu,[2],20%
same,PT,[2],12.7 s
same,Plat,[2],115.2 x10_4/uL
same,RBC,[2],616.2 x10_4/ul
same,Ret,[2],7.6%
same,WBC,[2],82.3 x10_2/uL
same,KIDNEY_L,[2],1 g
same,KIDNEY_R,[2],1 g
same,KIDNEY_TOTAL,[2],2 g
same,LIVER,[2],9.8 g
same,A/G,[2],1.6
same,ALP,[2],861.8 IU/L
same,ALT,[2],31 IU/L
same,AST,[2],58.8 IU/L
same,BUN,[2],11 mg/dL
same,CRE,[2],0.4 mg/dL
same,Ca,[2],10.6 mg/dL
same,Cl,[2],103.2 meq/L
same,DBIL,[2],0.072 mg/dL
same,GLC,[2],191 mg/dL
same,IP,[2],9.2 mg/dL
same,K,[2],4.1 meq/L
same,LDH,[2],168.6 IU/L
same,Na,[2],140.8 meq/L
same,PL,[2],132 mg/dL
same,RALB,[2],3.3 g/dL
same,TBIL,[2],0.1 mg/dL
same,TC,[2],73.4 mg/dL
same,TG,[2],64 mg/dL
same,TP,[2],5.4 g/dL
same,gamma-GTP,[2],0.8 IU/L
same,TERMINAL_BW,[3],216.9 g
same,APTT,[3],18.6 s
same,Bas,[3],0%
same,Eos,[3],0.8%
same,Fbg,[3],213.4 mg/dL
same,Hb,[3],13.3 g/dL
same,Ht,[3],38%
same,Lym,[3],79.6%
same,MCH,[3],21.9 pg
same,MCHC,[3],35.1%
same,MCV,[3],62.3 fL
same,Mono,[3],3.2%
same,Neu,[3],14.8%
same,PT,[3],12.9 s
same,Plat,[3],107.6 x10_4/uL
same,RBC,[3],609.8 x10_4/ul
same,Ret,[3],7.5%
same,WBC,[3],96.9 x10_2/uL
same,KIDNEY_L,[3],1 g
same,KIDNEY_R,[3],1 g
same,KIDNEY_TOTAL,[3],2 g
same,LIVER,[3],9.5 g
